One data set relates to HT29. The data set can be described thus: cells. The conditions noted are these: Homo sapiens, HT-29, 48 h; for CC50: read-out: LC50.
The subject of another data set is NCI-H460. The data set can be described thus: cells. The conditions noted are these: Homo sapiens, NCI-H460, 48 h.
In a further data set the test system is NCI-H226. In words: cells. The conditions noted are these: Homo sapiens, NCI-H226, 48 h; for CC50: read-out: LC50.
A further data set concerns 786-0. In words: cells. The note with it: Homo sapiens, 786-0, 48 h; for CC50: read-out: LC50.
The next data set has as its system OVCAR-5. In words: cells. The conditions noted are these: Homo sapiens, OVCAR-5, 48 h; for CC50: read-out: LC50.
The next data set relates to SNB-75. In words: cells. The conditions noted are these: Homo sapiens, SNB-75, 48 h; for CC50: read-out: LC50.
The subject of another data set is U251. In words: cells. The conditions noted are these: Homo sapiens, U-251, 48 h; for CC50: read-out: LC50.
A further data set has as its system MALME-3M. The data set can be described thus: cells. The conditions noted are these: Homo sapiens, 48 h; for CC50: read-out: LC50.
The next data set has as its system RPMI-8226. In words: cells. The conditions noted are these: Homo sapiens, RPMI-8226, 48 h.
The test system of another data set is HOP-62. In words: cells. The conditions noted are these: Homo sapiens, HOP-62, 48 h; for CC50: read-out: LC50.
The next data set deals with MDA-MB-435. The data set can be described thus: cells. The conditions noted are these: Homo sapiens, MDA-MB-435, 48 h; for CC50: read-out: LC50.
In another data set the test system is DU-145. In words: cells. The note with it: Homo sapiens, DU-145, 48 h; for CC50: read-out: LC50.
For the next data set, the system named is HCC-2998. The data set can be described thus: cells. The conditions noted are these: Homo sapiens, HCC 2998, 48 h; for CC50: read-out: LC50.
Another data set relates to CAKI-1. In words: NCI 60 cell lines, SRB assay: CAKI-1. The conditions noted are these: CAKI-1 (Renal Cancer), 48 hours. In kind it is cell-based, human. The protocol:
The human tumor cell lines were grown in RPMI 1640 medium containing 5% fetal bovine serum (FBS) and 2 mM L-glutamine. The cells were inoculated into 96 well microtiter plates in 100 μL volumes at plating densities ranging from 5000 to 40000 cells/well depending on the doubling time of each individual cell line. After cell inoculation, the microtiter plates were incubated at 37° C., 5% CO2, 95% air, and 100% relative humidity for 24 hours prior to addition of the test compound. The following day, two plates of each cell line were fixed in situ with TCA to represent a measurement of cell population for each cell line at the time of sample addition (Tz). Each of the test compounds was dissolved in dimethyl sulfoxide at 400-times the desired final maximum test concentration, and the resulting solutions were stored frozen prior to use. At the time of sample addition, an aliquot of frozen concentrate was thawed and diluted to twice the desired final maximum test concentration with complete medium containing 50 μg/mL gentamicin. Additional four 10-fold serial dilutions were prepared to provide a total of five sample concentrations plus control. Aliquots of 100 μL of these different concentrations were added to the appropriate microtiter wells already containing 100 μL of medium, making up the required final sample concentrations. […] Bound stain was subsequently solubilized with 10 mM trizma base, and the absorbance was read on an automated plate reader at a wavelength of 515 nm. […] Using the seven absorbance measurements [time zero (Tz), control growth (C), and test growth in the presence of drug at the five concentration levels (Ti)], the percentage growth was calculated at each of the sample concentration levels. […] The test compound concentration resulting in total growth inhibition was calculated from Ti=Tz. […] In the event when the effect was not reached or was exceeded, the value for the respective parameter was expressed as greater or less than the maximum or minimum concentration tested.
On the technique in general: In SRB staining, fixed cells bind dye roughly in proportion to their protein.

For the next data set, the system named is PC-3. The data set can be described thus: cells. The conditions noted are these: Homo sapiens, PC-3, 48 h.
For the next data set, the system named is IGROV1. The data set can be described thus: cells. The conditions noted are these: Homo sapiens, IGROV-1, 48 h.
The subject of the next data set is SK-MEL-2. In words: cells. The conditions noted are these: Homo sapiens, SK-MEL-2, 48 h.
A further data set has as its system RXF 393. The data set can be described thus: cells. The conditions noted are these: Homo sapiens, RXF 393, 48 h.

By GI50 is commonly meant the concentration giving 50% growth inhibition. One may read the TGI as the concentration giving total growth inhibition.

Turning to `Cc1cc(C)cc(-c2ccc3c(c2)[N+]([O-])=C2C3=C[C@@]34NC(=O)C5(CCCN5C3=O)CC4C2(C)C)c1` (stereo partly shown) [Biphenyl Analogue], the concentration for 50% growth inhibition (GI50) with HT29 was determined as 284 nM; with NCI-H460, 326 nM; with NCI-H226, 199 nM; with 786-0 it was 192 nM; in the data set with OVCAR-5, 368 nM; in the data set with SNB-75, 242 nM. Moreover, the GI50 came out at 136 nM with U251; 41.7 nM with MALME-3M; 10.2 nM in the data set with RPMI-8226; 1640 nM in the data set on HOP-62; 166 nM with MDA-MB-435; 280 nM in the data set on DU-145. Further, it took 269 nM to inhibit growth in the data set on HCC-2998 by half (GI50). In addition, the CC50 was > 100000 nM in the data set on HT29; 2920 nM with NCI-H226; 825 nM in the data set on 786-0; 4210 nM in the data set with OVCAR-5; 3860 nM in the data set on SNB-75; 547 nM in the data set with U251. Moreover, the CC50 in the data set with MALME-3M was determined as 1500 nM; with HOP-62, 6740 nM; in the data set with MDA-MB-435 it was 1410 nM; in the data set on DU-145 it was 3660 nM; in the data set with HCC-2998 it was 3500 nM.

In the data set with CAKI-1, `CN(C)c1cccc2c(S(=O)(=O)NCCCCCCCCCCOc3ccc4c(c3)[N+]([O-])=C3C4=C[C@@]45NC(=O)C6(CCCN6C4=O)CC5C3(C)C)cccc12` (stereo partly shown) [Dansyl Analogue] came in with a GI50 of 426 nM and a total growth inhibition concentration (TGI) of 2790 nM. For the same compound, the CC50 with CAKI-1 (read-out: LC50 (the source's name)) is 20800 nM.

`[2H]On1c2c(c3ccc4c(c31)C=CC(C)(C)O4)C(OC([2H])([2H])[2H])[C@@]13NC(=O)C4(CCCN4C1=O)CC3C2(C)C` (stereo partly shown) [Deuterated Methanol Adduct]: the 50% growth inhibitory concentration (GI50) was determined as 1260 nM in the data set with HT29; 1800 nM in the data set with NCI-H460; 619 nM with PC-3; 743 nM with IGROV1; 391 nM in the data set on NCI-H226; 901 nM in the data set with SK-MEL-2. The GI50 in the data set with RXF 393 is 283 nM; in the data set on 786-0 it was 1200 nM; in the data set on OVCAR-5, 586 nM; with SNB-75, 265 nM; in the data set on U251 it was 382 nM; with MALME-3M it was 174 nM. The 50% growth inhibitory concentration (GI50) with RPMI-8226 was determined as 40.2 nM; in the data set on HOP-62, 2390 nM; with MDA-MB-435, 395 nM; in the data set with DU-145 it was 1750 nM; with HCC-2998, 692 nM. In addition, the CC50 was 68100 nM with HT29; 7170 nM with NCI-H460 (read-out: LC50); 5120 nM with PC-3 (read-out: LC50); 4680 nM in the data set with IGROV1 (read-out: LC50); 4120 nM in the data set with NCI-H226; 5390 nM in the data set with SK-MEL-2 (read-out: LC50). The CC50 came out at 2050 nM with RXF 393 (read-out: LC50); 5020 nM in the data set on 786-0; 4490 nM with OVCAR-5; 4720 nM with SNB-75; 3700 nM with U251; 5090 nM in the data set on MALME-3M. In addition, the CC50 in the data set on RPMI-8226 (read-out: LC50) amounted to 3300 nM; with HOP-62, 26700 nM; in the data set with MDA-MB-435, 4720 nM; in the data set on DU-145, 5590 nM; with HCC-2998, 4710 nM.

For the origin of these results see patent US20110105515A1, “TARGETING THE ONCOPROTEIN NUCLEOPHOSMIN” (President and Fellows of Harvard College, priority 2007, published 2011).
